# Experiments:
# [1] = system: spinal cord injury (SCI) rat model; test: Spinal cord injury rat model: lesion volume; format: in vivo; settings: for Percent change in Lesion volume: reduction vs Saline group (group 1), 0.5 ml/kg IV
# Procedure: Animals: Female Sprague-Dawley rats (Harlan Sprague-Dawley, Indianapolis, Ind.), weighing 200-225 grams each were given free access to food and water before the experiment. The animals were anesthetized with ketamine (80 mg/kg) and xylazine (10 mg/kg). Brain temperatures were monitored using a rectal thermometer. The animals' body temperature was maintained at 37° C. by using a water jacketed heating pad. Brain temperature was monitored for 1 hour prior to injury to 6 hours following injury and was recorded at 30-minute intervals.
# Experimental Groups. The spinal cord injury model utilized in the studies is described in detail (Rabchevsky et al, 2002; J. Neurosci. Res. 68:7). Young adult female Sprague-Dawley rats received a spinal cord contusion using the Precision Scientific Inc. pneumatic impactor. Female animals were used due to the paralysis associated with the injury and ease of voiding the bladder. Prior to surgery, rats were assigned to different treatment groups based on a randomized block design so that on any given surgery day all treatment groups were included. The rats were anesthetized with ketamine (80 mg/kg) and xylazine (10 mg/kg) before laminectomy was performed at the 10th thoracic vertebra (T10). The vertebral column was stabilized with angled clamps on the upper thoracic (T8) and lumber […] levels and the impactor with a tip diameter of 2 mm was delivered at approximately 50 kdynes onto the exposed, intact dura overlying the dorsal spinal cord. The impactor was immediately removed, the wound irrigated with saline and the muscle and skin openings sutured together.
# Drug Administration. Compound was administered in the following paradigm: intravenous injection of saline or drug solutions 15 minutes following injury at 0.5 ml/kg (1×10^4, 5×10^4, and 10×10^4 TCDO). Drug was administered once per day starting at the indicated times and continued for 5 days. The saline control group was run in parallel with the drug-treated groups.
# Histology. At the end of the study, the animals were killed and the spinal cord fixed in 4% paraformaldehyde. For analysis, 20 μm cryosections were stained for eriochrome cyanine (EC) to differentiate between white matter and cell bodies to calculate the amount of spared tissue through the lesion site. Immunocytochemical analysis was performed on the tissue. Tissue sparing was determined by computed image analysis from 10 evenly spaced sections through the injured T10 segment. The volume of necrotic tissue divided by the total cross-sectional volume is converted to a percentage and subtracted from 100%. Sections were taken for immunocytochemical analysis for macrophage infiltration
# Each animal received induction of 5 i.v. injections for a total of 5×0.5 ml/kg of body weight. […]
# SCI rat study: mortality = format: in vivo; settings: 0.5 ml/kg IV once daily 5 days, 6 weeks
# Text: Mortality: There were no deaths in this study.
# [2] = system: spinal cord injury (SCI) rat model; test: Example 3: TCDO in the spinal cord injury rat model (lesion volume, BBB); format: in vivo
# Procedure: Tetrachlorodecaoxygen (TCDO) was tested for efficacy in the spinal cord injury (SCI) rat model. In order to determine the efficacy of TCDO, rats were subjected to spinal cord injury and 6 weeks of recovery. Rats were injected intravenously with saline or TCDO solutions. Rats received 1 injection regiment: administered 15 minutes after injury. Animals were injected once daily for 5 days following the injury. Treated rats were examined after 1, 2, 3, 4, 5, and 6 weeks for drug behavioral effect. The animals were examined for changes in lesion volume (LV) and Basso, Beattie and Bresnahan (BBB) locomotor test. […] However, by 7 days, TCDO was not effective in reducing the LV or behavioral deficits.
# non-healing wounds = test: Example 4: topical TCDO versus saline in 271 patients with non-healing wounds; format: in vivo, human
# Procedure: TCDO was investigated for its effects on non-healing wounds. In the study, 271 patients with non-healing wounds which included post-operative wounds, venous ulcers, arterial ulcers, post traumatic wounds and decubitus ulcers. The patients received either 5 mL of TCDO or saline twice daily applied by compress or directly to the wound for 21 days. […] Irrespective of wound types, wound surface decreased 2 to 4 times more quickly with TCDO treatment compared to saline. […] Adverse events were reported by 7% and 12% of patients treated with saline and TCDO respectively, the most frequent was slight pain.
# diabetic foot ulcer = test: Example 6: randomized controlled trial of TCDO as adjunct in diabetic foot ulcer; format: in vivo, human
# Procedure: This randomized controlled trial was undertaken to evaluate the effect of TCDO as an adjunct to the standard treatment of diabetic foot ulcer. A total of 40 participants were randomized into 2 groups of 20. One group underwent standard therapy combined with infusions of TCDO, and 1 underwent standard therapy combined with placebo. The wound severity scores, which vary with the severity of infection and inflammation, necrotic and granulation tissues, and wound depth and area, were assessed weekly for 9 weeks.
# [3] = 4 cycles of 0.5 mL TCDO/kg body weight per day
# Procedure: Patients were then given 4 cycles of WF10 with the daily dose ranging from 0.5 mL/kg body weight to 1.5 mL/kg body weight.
# [4] = system: lipopolysaccharide (LPS) from E coli 055B5; settings: TCDO 0.2 ml/kg iv twice during the day before iv LPS; without TCDO 346; cited from earlier work
# E. coli = settings: phagocytosis assay; cited from earlier work
# [5] = system: monocytes and large granular lymphocytes; settings: rats, cited from earlier work
# [6] = system: autoimmune disease with skin manifestations; settings: cited from earlier work
# wounds [7] = settings: topical; superior to PVP-iodine treatment; cited from earlier work
# wounds [8] = settings: applied topically; cited from earlier work
# HIV = settings: cited from earlier work
# [9] = system: T-lymphoma cell line ACH2; settings: cited from earlier work
# [10] = system: monocytes, macrophages and lymphocytes; settings: in vitro; cited from earlier work
# [11] = system: macrophages infiltrating a skin blister; settings: human wound-healing model; cited from earlier work
# [12] = system: granulocytes, PBMCs, LGLs, erythropoiesis; settings: rats, cited from earlier work
# hematopoietic stem cells = settings: mice receiving sublethal doses of irradiation; cited from earlier work
# [13] = system: radiation-induced, chemical induced and metastatic malignant and benign tumors; settings: cited from earlier work
# [14] = system: humoral and cellular immune responses; settings: cited from earlier work
# activated microglia = settings: Kindy et al.; cited from earlier work
# [15] = biological target: gp120 envelope glycoprotein of HIV-1 (Human immunodeficiency virus type 1 group M subtype B, UniProt P04578); settings: pre-incubation with TCDO; cited from earlier work
# [16] = i.v. once daily 5 days, initiated 15 minutes following injury
# [17] = after 9 weeks, subgroup analysis, p<0.01 vs placebo
# [18] = one patient, four cycles at 0.5 mL/kg body weight
# [19] = patients, two cycles at 0.5 mL/kg body weight
substance,measurement,setting,value
Tetrachlorodecaoxygen [TCDO],Lesion volume (mm^3),"[1]; rat SCI, 1 × 10^4 units TCDO, 0.5 ml/kg IV once daily 5 days from 15 min after injury, day 42, mean ± SD",did not show a significant reduction
same,Percent change in Lesion volume,[1]; 1 × 10^4 units TCDO,25%
same,Percent change in Lesion volume,[1]; 5 × 10^4 units TCDO,50%
same,Percent change in Lesion volume,[1]; 10 × 10^4 units TCDO,65%
same,Mortality,SCI rat study: mortality,no deaths
same,Reduction of LV or behavioral deficits,[2]; by 7 days,not effective
same,Decrease in lesion volume (LV),[2]; [16],49%
same,Improvement of BBB score,[2]; [16],158%
same,Wound cleaning and formation of new tissue versus saline,"non-healing wounds; 271 patients, 5 mL twice daily topically for 21 days",significantly superior to saline
same,"Adverse events, patients reporting","non-healing wounds; topical, 21 days, most frequent was slight pain",12%
same,Wound depth and wound area versus placebo,diabetic foot ulcer; after 9 weeks,not statistically significant
same,Wound severity score,"diabetic foot ulcer; after 9 weeks, standard therapy plus TCDO infusions, n=20, p<0.05 vs placebo",1.8±1.9
same,Infection and inflammation score,diabetic foot ulcer; [17],0.0±0.0
same,Necrotic tissue score,diabetic foot ulcer; [17],0.0±0.0
same,Granulation tissue score,"diabetic foot ulcer; after 9 weeks, subgroup analysis, p<0.05 vs placebo",0.1±0.3
same,Severe adverse events,diabetic foot ulcer; throughout the observation period,No severe adverse events were observed
same,Hemolysis,[3],no clinically relevant hemolysis
same,LD50 value of LPS after TCDO,[4],518 mg
same,TCDO dose to which the concentration of maximal ingestion of E. coli corresponds,E. coli,0.5 mL/kg-body weight
same,Time for monocyte level to return to normal value after discontinuation,[5]; after 90 days of dosing,30 days
same,Blood levels of monocytes and large granular lymphocytes,"[5]; daily for 90 days, 0.33 to 2.0 mL/kg body weight, within four days",greater than three times baseline value
same,Monocyte level elevated over baseline,[5]; sixteen days after discontinuation,approximately 50%
same,"Treatment outcome, HIV associated psoriasis",[6]; [18],successfully treated
same,"Treatment outcome, eczema",[6]; [18],successfully treated
same,"Treatment outcome, pustular psoriasis","[6]; one patient, two cycles at 0.5 mL/kg body weight",successfully treated
same,"Treatment outcome, chronic actinic dermatitis",[6]; [19],successfully treated
same,"Treatment outcome, pemphigus vulgaris",[6]; [19],successfully treated
same,Reduction in wound surface,wounds [7],74.9%
same,Effects of cortisone on wounds,wounds [8],reverse the effects of cortisone on wounds
same,Infectivity of HIV particles,"HIV; HIV stocks supplemented with TCDO, concentration dependent",markedly decreased the infectivity of HIV particles
same,Anti-HIV properties,HIV; in vitro,displayed anti-HIV properties
same,Replication of HIV,"HIV; persistently infected lymphocytic and monocytic cell lines, peripheral blood mononuclear cells",did not affect the replication of HIV
same,Delayed virus spread of HIV in presence of suboptimal concentrations of zidovudine,HIV; simultaneous addition of TCDO,could significantly be blocked
same,Induction of chromosomally integrated HIV-1 provirus,[9],failed to induce
same,Antigen presentation,[10],decrease antigen presentation
same,Macrophage TNF-α expression,[10],decrease macrophage tumor necrosis factor (TNF)-α expression
same,Macrophage-fibroblast cooperation,[10],enhance macrophage-fibroblast cooperation
same,Oxidative burst in monocytes,[10],stimulate an oxidative burst in monocytes
same,Phagocytosis,[10],increase phagocytosis
same,Number of macrophages infiltrating a skin blister,[11],increased the number of macrophages infiltrating a skin blister
same,Erythropoiesis,[12]; after total body X-irradiation,stimulated erythropoiesis
same,"Proportion of granulocytes, PBMCs and LGLs",[12],"increased the proportion of granulocytes, peripheral blood monocytes (PBMCs) and large granular lymphocytes (LGLs)"
same,Regeneration of hematopoietic stem cells,hematopoietic stem cells,stimulated regeneration of hematopoietic stem cells
same,Antitumor effects,[13],displayed direct antitumor effects
same,Humoral immune response,[14]; Jerne plaque test,increased
same,Cellular immune response,[14]; footpad swelling test,increased
same,Proportions of T-helper and T suppressor/cytotoxic cells,[14]; spleen and thymus,altered proportions of T-helper and T suppressor/cytotoxic cells
same,Production of proinflammatory cytokines and superoxide anion,activated microglia,suppresses the production of proinflammatory cytokines and superoxide anion
same,Binding of gp120 of HIV-1 to cells,[15],is blocked

# Source: patent publication US20140356452A1, “Therapeutic Uses of Tetrachlorodecaoxygen (TCDO)” (IBT USA INC., priority 2012, published 2014)
